Data on 3 compounds can be found in article PMC3843727, “Isolation and Functional Characterization of Calcitonin-Like Diuretic Hormone Receptors in Rhodnius prolixus” (PLoS ONE, 2013).

Ends that are not written are not given here.

For assay [1], the system named is Rhopr-CT/DH-R1-B. The experiment in a line: Bioluminescence (calcium mobilization) assay, HEK293/CNG cells expressing Rhopr-CT/DH-R1-B. It counts as cell-based, R. prolixus. Conditions: luminescence. The source says: (§1) The largest cDNA fragments encoding Rhopr-CT/DH-R1 transcript variants and Rhopr-CT/DH-R2-B were amplified as described earlier (see section: Isolation of cDNA sequences encoding R. prolixus CT/DH receptors). The PCR products from these reactions were used as a template to amplify the ORF and introduce a Kozak translation initiation sequence at the 5´ end using the primers listed in Table S5 in File S1. The resulting products were cloned into pGEM-T Easy vector (Promega, Madison, WI, USA). These were then subcloned into either pIRES2-ZsGreen1 (Clontech, Mountain View, CA, USA) or pcDNA 3.1^+ (Life Technologies Corporation, Carlsbad, CA, USA) for expression in mammalian cells.
(§2) Human embryonic kidney (HEK)-293 cells stably expressing a modified cyclic nucleotide-gated (CNG) channel (HEK293/CNG) (previously available through BD Biosciences, Mississauga, ON, Canada) were used to functionally characterize the receptors. […]
(§3) Bioluminescence assay using CHO/G16 cells was performed as described previously. […] Cells were loaded in each well using an automated injector and the luminescence recorded over 20 seconds using a Wallac Victor2 plate reader (Perkin Elmer, San Diego, CA, USA). […] Dose-response curves were obtained and the EC50 values determined using Prism5 software.

The subject of assay [2] is Rhopr-CT/DH-R1-C. The experiment in a line: Bioluminescence (calcium mobilization) assay, HEK293/CNG cells expressing Rhopr-CT/DH-R1-C. To be noted: luminescence. It counts as cell-based, R. prolixus.
Excerpt: as §1, §2, §3

Assay [3] relates to Rhopr-CT/DH-R2-B. In words: Bioluminescence (calcium mobilization) assay, HEK293/CNG cells expressing Rhopr-CT/DH-R2-B. It is filed as cell-based, R. prolixus. Conditions: luminescence.
Excerpt: as §1, §2, §3

Assay [4] deals with Malpighian tubules. Conditions: reference stimulant; cited from earlier work.

Consider “MQRPQGPSLSVANPIEVLRSRLLLEIARRRMKEQDASRVSKNRQYLQQI-NH2 [Rhopr-CRF/DH, R. prolixus corticotropin releasing-factor (CRF)-related diuretic hormone, custom synthesised by GenScript at > 95% purity]”, for which the receptor activation result in assay [1], in assay [2] and in assay [3] was “None of these receptors were activated” throughout. Further, in assay [4], the “rate of fluid secretion by MTs” value is reported as “maximum rate”.

Take `NCCc1c[nH]c2ccc(O)cc12` [serotonin]: the “rate of fluid secretion by MTs” value in assay [4] is on record as “maximum rate”.

As to “NSELINSLLSLPKNMNDA-NH2 [Drome-PDF, D. melanogaster pigment dispersing factor, custom synthesized by GeneMed Synthesis at > 95% purity]”, the receptor activation result in assay [1], in assay [2] and in assay [3] was “None of these receptors were activated” throughout.
